Values joined by “and” are separate entries in the source; they are usually repeats but may differ in a detail not shown here. Equal values may be shown once. Non-standard residues stand in square brackets, D forms with d. Residues, ends and D or L forms follow the SMILES beside them.
How the values were obtained:
[1] = Maximum tolerated dose (MTD) study, i.v.; type: in vivo; details: ICR mice
Source text: SI Figures: Why are there 6 different Figure 3s with separate legends? Within the 4th - 6th Figure 3’s, what are the 4 different graphs for each of A, B, and C? […] Figure 16, 19 and 24 […]
have unreadable components due to overlap of text.
Each panel that constitutes “Secondary structure analysis of pleurocidin peptides from MD simulations” and, as such, is the same data but analysed in different ways. For this reason, we considered it appropriate to consider these all as one figure. However, to provide further clarity we have renumbered the supplementary figures and added further detail to the legends. The DISICL analysis is presented with a separate panel for each peptide. This has been clarified in the figure legend.
The overlap in the metabolite annotation in Volcano plots is a challenge for those metabolites that do not change much or where there is low significance as they all cluster in the same place. Since they are below the significance threshold, we have elected to remove these labels. […]
unethical to perform dose-ranging experiments to confirm this. Instead our experimental design was […]
As mentioned above however, we […]
systemic delivery of AMPs will never be possible due to insufficient therapeutic index. There is a marginal therapeutic index provided based on mammalian cell toxicity (up to 12-fold), but many existing in vitro studies of AMPs have shown greater selectivity. […]

HEK293 = type: cell-based, human; details: XTT, 24 h with peptide, OD475; Eagle's Minimum Essential Media, 10% FBS; average and standard error of three biological replicates
Description: (§1) HeLa and HEK293 cell lines were purchased from ECACC and cultured in Eagle’s Minimum Essential Media containing glutamine, supplemented with 10% FBS and 1X non-essential amino acids. A549 and Calu-3 cell lines were purchased from ATCC. […] Cytotoxicity was measured by incubating starter cultures of cells for 24 h in a 96 well plate, gently removing the supernatant and replacing it with dilutions of peptides and controls, incubating for a further 24 h and then staining of the cells with the second-generation tetrazolium dye, XTT.

BAL cells = assay: Murine EMRSA-15 lung infection model: BAL total and differential cell count; type: in vivo, C57Bl6J mice; details: 48 h
Description: Using the recently developed method[65], an overnight culture of EMRSA-15 was prepared in tryptic soy broth (TSB). EMRSA-15 was cultured in TSB overnight at 37 °C, adjusted to a starting OD600 of 0.025, and grown for additional 4 h for agar beads preparation. EMRSA-15 was embedded into agar beads by mixing the overnight culture with molten tryptic soy agar, which was then spun into warmed mineral oil. The preparation was cooled and centrifuged at 2700 × g, the remaining oil was eliminated, and the beads were washed in sterile PBS. The CFU content of the beads slurry was subsequently quantified on TSA plates and the beads slurry then diluted to 2 × 10^7 CFU/ml in sterile PBS to deliver a final dose of 1 × 10^6 CFU/mouse. Animal work was performed in accordance with the Animals (Scientific Procedures) Act of 1986 (United Kingdom) and 2012 revisions with local ethical approval of King’s College London. On day 0, male C57Bl6J mice (8–10 weeks, Charles River) were anaesthetised under Isoflurane and 50 µl inoculum of EMRSA-15 embedded in agar beads (10^6 CFU/mouse) was instilled directly into the respiratory tract via oropharyngeal dosing (o.a.). Sham control mice were inoculated with sterile PBS agar beads. […] Body weight was measured daily, and animals monitored at regular intervals for signs of pain and distress. After 48 h of pulmonary infection, animals were terminally euthanized using 25% urethane via intra-peritoneal injection. CFUs were quantified in lung homogenates. Lung homogenates were then centrifuged at 14000 rpm for 30 min at 4 °C and the supernatants were stored at −80 °C for future analysis. For BAL fluid collection and analysis (total and differential cell count), a 22-gauge catheter was inserted into the trachea and BAL was recovered by instillation of 0.5 ml of sterile PBS three times and total cells counts were performed by adding Turks stain in a 1:1 ratio. BAL fluid was then centrifuged, and supernatants were stored at −20 °C. Total levels of TNFα, IL-6, KC and MCP-1 were quantified from BAL fluid collected from all animals and measured by ELISA according to the manufacturer protocol (R&D Systems UK). Concentrations of all mediators were then normalised to total protein content of BAL fluid quantified via bicinchoninic acid total protein assays performed to manufacturers protocols (Thermofisher Scientific). […] Statistical analysis was by one-way ANOVA with Dunnett’s multiple comparisons test.

A549 = type: cell-based; details: XTT, 24 h with peptide, OD475; DMEM, 10% FBS; average and standard error of three biological replicates
Description: as §1

HeLa = type: cell-based; details: XTT, 24 h with peptide, OD475; Eagle's Minimum Essential Media, 10% FBS; average and standard error of three biological replicates
Description: as §1

Calu-3 = type: cell-based; details: XTT, 24 h with peptide, OD475; DMEM/F-12, 10% FBS; average and standard error of three biological replicates
Description: as §1

KC = assay: Murine EMRSA-15 lung infection model: BAL cytokine ELISA; type: in vivo, C57Bl6J mice; details: 600 mg/kg vancomycin or the two higher D-pleurocidin-KR doses (15, 1.5 mg/kg) i.v., 48 h
IL-6 = assay: as above; type: in vivo, C57Bl6J mice; details: 600 mg/kg vancomycin or D-pleurocidin-KR (also lowest dose 0.15 mg/kg) i.v., 48 h
MCP-1 = assay: as above; type: in vivo, C57Bl6J mice; details: vancomycin or D-pleurocidin-KR i.v., 48 h
[2] = test system: EMR Staphylococcus aureus-15 NCTC 13616; details: RPMI supplemented with 5% FBS (value in parentheses); twofold broth microdilution, 20 h 37 C, OD600; modal MIC, at least three biological replicates
Description: The antibacterial activity of the peptides was assessed through a modified twofold broth microdilution assay with modal MICs generated from at least three biological replicate experiments[20],[25]. The method broadly followed EUCAST methodology, with non-cation-adjusted Mueller Hinton or RPMI replacing cation-adjusted Mueller Hinton. Peptides and antibiotics were diluted in a twofold dilution in media down a 96 well plate. Bacteria were then added, back-diluted from an overnight culture, at a starting concentration of 5 × 10^5 CFU/ml. Plates were incubated, static at 37 C, for 20 h and the OD600 was determined using a Clariostar plate reader (BMG Labtech). […] Synergy was measured using standard microdilution checkerboard assays under the same conditions as the MICs[54]. Twofold dilution series of each peptide or antibiotic were prepared in separate 96 well plates and then combined into one before addition of bacteria. The growth/no growth interface was determined using the same definition as the MIC. The fractional inhibitory concentration was calculated from the most synergistic well on the plate for three independent repeats, and presented as the average +/− standard deviation. FIC is calculated as (MIC of compound A in combination with B/MIC of compound A alone) + (MIC of compound B in combination with A/MIC of compound B alone). MICs were determined on the same plates as the FICs to increase reproducibility.

human red blood cells = assay: Haemolysis assay; type: cell-based; details: human red blood cells in PBS, 1 h 37 °C, OD550, relative to 0.1% Triton-X-100
Description: Haemolysis was tested by incubating titrations of AMPs in PBS with freshly collected human red blood cells for 1 h at 37 °C. Control wells were treated with 0.1% Triton-X-100 to ensure complete lysis, or PBS-only to represent no lysis. Samples were spun down to remove non-lysed cells and the OD550 of the supernatant was measured using a Clariostar plate reader. The percentage of haemolysis was calculated as % haemolysis = (AP − AB)/(AC − AB) × 100, where AP is the absorbance value for a known peptide concentration, AC is the absorbance of the 0.1% Triton-X-100 control, AB is the absorbance of the PBS control. Data presented are averages and standard error from three biological replicate experiments.

TNFα = assay: Murine EMRSA-15 lung infection model: BAL cytokine ELISA; type: in vivo, C57Bl6J mice; details: vancomycin or D-pleurocidin-KR i.v., 48 h

SMILES: CC(C)C[C@@H](NC(=O)[C@@H](Cc1ccc(O)cc1)NC(=O)[C@@H](Cc1c[nH]cn1)NC(=O)[C@H](NC(=O)[C@@H](CC(C)C)NC(=O)[C@@H](C)NC(=O)[C@@H](C)NC(=O)[C@@H](CCCNC(=N)N)NC(=O)CNC(=O)[C@H](NC(=O)[C@@H](Cc1c[nH]cn1)NC(=O)[C@@H](CCCNC(=N)N)NC(=O)CNC(=O)[C@H](NC(=O)[C@@H](Cc1c[nH]cn1)NC(=O)[C@@H](C)NC(=O)[C@@H](C)NC(=O)[C@@H](CCCNC(=N)N)NC(=O)[C@@H](CCCNC(=N)N)NC(=O)[C@@H](Cc1ccccc1)NC(=O)[C@@H](Cc1ccccc1)NC(=O)[C@@H](CO)NC(=O)CNC(=O)[C@@H](Cc1c[nH]c2ccccc12)NC(=O)CN)C(C)C)C(C)C)[C@H](C)O)C(N)=O [D-pleurocidin-KR] (H-G[dW]G[dS][dF][dF][dR][dR][dA][dA][dH][dV]G[dR][dH][dV]G[dR][dA][dA][dL][dT][dH][dY][dL]-NH2; N-terminus assumed)
- dose tolerated when administered i.v. [1]: 15 mg/kg/24 h
- Toxicity HEK293 (EC50 / IC50) (HEK293): (36.4 ± 4.3) µg/ml
- neutrophil recruitment (BAL) (BAL cells; 600 mg/kg vancomycin or D-pleurocidin-KR (also lowest dose 0.15 mg/kg) i.v.): reduced
- macrophage numbers in BAL (BAL cells; vancomycin or D-pleurocidin-KR i.v.): No effects
- Toxicity A549 (EC50 / IC50) (A549): (56.5 ± 4.5) µg/ml
- Toxicity HeLa (EC50 / IC50) (HeLa): (25.3 ± 2.2) µg/ml
- Toxicity Calu-3 (EC50 / IC50) (Calu-3): (39.1 ± 1.8) µg/ml
- KC levels in BAL (KC): fall to that of the uninfected group
- IL-6 in BAL (IL-6): reduced
- levels of MCP-1 in BAL (MCP-1): No effects
- MIC, peptide concentration [2]: 0.5 µg/mL
- haemolysis at the highest concentration tested 400 µg/ml (human red blood cells): 50%
- concentration at which 10% haemolysis is achieved (human red blood cells; three biological replicates): above 64 µg/ml and ~ 75 µg/ml
- levels of TNFα in BAL (TNFα): No effects

— publication PMC7699649 (Communications Biology, 2020)
